# Reference: the supplement of paper PMC8671470
# ± gives the standard deviation of the averaged measurements.
# Tested on: HL-60
# Assay: cell viability (% survival relative to DMSO control); higher = less cytotoxic
# Conditions: 0.01 µM; 72 h; co-treatment: GSK2194069 100 nM
# How it was run: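 A rescreen of the full library used HL-60 cells in RPMI 1640 with 10% FBS on 384-well plates, run in duplicate at five tenfold concentrations (1–10,000 nM). Each screen included DMSO or 100 nM of one of three metabolic inhibitors and ran 72 h at 37 °C, 5% CO2. CellTiter-Glo viability was scaled between DMSO and 10 μM proteasome-inhibitor wells. Any area under the curve comes from four-parameter log-logistic fits with drc and PharmacoGx.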
row,Structure (SMILES),cell viability [%]
1,Nc1nc(Cl)nc2c1ncn2[C@H]1C[C@H](O)[C@@H](CO)O1 [Cladribine],101 ± 9.5
2,O=C1c2cc([N+](=O)[O-])ccc2-n2c1nc1ccccc1c2=O [GNF-Pf-3777],98.4 ± 12
3,C=C(C)[C@H]1Cc2c(ccc3c2O[C@@H]2COc4cc(OC)c(OC)cc4[C@@H]2C3=O)O1 [Rotenone],91.1 ± 11
4,Oc1ccc(Nc2nc(-c3ccc(Cl)cc3)cs2)cc1 [SKI II],94.2 ± 8.9
5,Cc1cn([C@H]2C[C@H](O)[C@@H](COP(=O)(O)OP(=O)(O)O)O2)c(=O)[nH]c1=O [Thymidine diphosphate],75.9 ± 32
6,CN(C)c1cc(NC(=O)CNC(C)(C)C)c(O)c2c1C[C@H]1C[C@H]3[C@H](N(C)C)C(=O)C(C(N)=O)C(=O)[C@@]3(O)C(=O)C1C2=O (stereo partly drawn) [Tigecycline],96.3 ± 14
7,COc1ccc2c(C(=S)N(C)CC(=O)O)cccc2c1C(F)(F)F [Tolrestat],104.6 ± 0.97
8,CCC(=O)N1CCN(c2ccc(-n3c(=O)ccc4cnc5ccc(-c6cnc7ccccc7c6)cc5c43)cc2C(F)(F)F)CC1 [Torin1],106 ± 1.1
9,NC(=O)c1cccc(-c2cccc(OC(=O)NC3CCCCC3)c2)c1 [URB-597],113.65 ± 0.074
10,O=C1O[C@H]([C@@H](O)CO)C(O)=C1O [Vitamin C (ascorbate)],100 ± 1.1

# Same assay, conditions: 0.01 µM; 72 h; co-treatment: pictilisib 100 nM
row,Structure (SMILES),cell viability [%]
1,O=C(C1CC1)N1CC[C@@H](C=C2NNC(=O)N2c2ccc(-c3ccc4occc4c3)cc2)C1,104 ± 7.5
2,C[C@H](NC(=O)c1sccc1OCc1ccc(Cl)cc1)c1ccccc1,95.7 ± 6.5
3,O=C(O)C1=CC(=C(c2ccc(O)c(C(=O)O)c2)c2ccc(O)c(C(=O)O)c2)C=CC1=O [Aurintricarboxylic acid],99.3 ± 8.4
4,COC(=O)[C@]12CCC(C)(C)C[C@H]1[C@H]1C(=O)C=C3[C@@]4(C)C=C(C#N)C(=O)C(C)(C)[C@@H]4CC[C@@]3(C)[C@]1(C)CC2 [Bardoxolone methyl],78.7 ± 5.8
5,Cc1c(-c2ccc(-c3ccccc3F)cc2)nc2ccc(F)cc2c1C(=O)O [Brequinar],101 ± 4
6,Nc1nc(Cl)nc2c1ncn2[C@H]1C[C@H](O)[C@@H](CO)O1 [Cladribine],102 ± 11
7,O=C1c2cc([N+](=O)[O-])ccc2-n2c1nc1ccccc1c2=O [GNF-Pf-3777],101.2 ± 0.8
8,C=C(C)[C@H]1Cc2c(ccc3c2O[C@@H]2COc4cc(OC)c(OC)cc4[C@@H]2C3=O)O1 [Rotenone],74.5 ± 32
9,Oc1ccc(Nc2nc(-c3ccc(Cl)cc3)cs2)cc1 [SKI II],102 ± 1.6
10,Cc1cn([C@H]2C[C@H](O)[C@@H](COP(=O)(O)OP(=O)(O)O)O2)c(=O)[nH]c1=O [Thymidine diphosphate],94 ± 2.1
11,CN(C)c1cc(NC(=O)CNC(C)(C)C)c(O)c2c1C[C@H]1C[C@H]3[C@H](N(C)C)C(=O)C(C(N)=O)C(=O)[C@@]3(O)C(=O)C1C2=O (stereo partly drawn) [Tigecycline],100 ± 1.1
12,COc1ccc2c(C(=S)N(C)CC(=O)O)cccc2c1C(F)(F)F [Tolrestat],104 ± 8.2
13,CCC(=O)N1CCN(c2ccc(-n3c(=O)ccc4cnc5ccc(-c6cnc7ccccc7c6)cc5c43)cc2C(F)(F)F)CC1 [Torin1],104 ± 1.5
14,NC(=O)c1cccc(-c2cccc(OC(=O)NC3CCCCC3)c2)c1 [URB-597],106.8 ± 0.33
15,O=C1O[C@H]([C@@H](O)CO)C(O)=C1O [Vitamin C (ascorbate)],81.6 ± 28

# Same assay, conditions: 0.1 µM; 72 h; co-treatment: AZD3965 100 nM
row,Structure (SMILES),cell viability [%]
1,O=C(C1CC1)N1CC[C@@H](C=C2NNC(=O)N2c2ccc(-c3ccc4occc4c3)cc2)C1,81.6 ± 8.7
2,C[C@H](NC(=O)c1sccc1OCc1ccc(Cl)cc1)c1ccccc1,99.14 ± 0.31
3,O=C(O)C1=CC(=C(c2ccc(O)c(C(=O)O)c2)c2ccc(O)c(C(=O)O)c2)C=CC1=O [Aurintricarboxylic acid],101 ± 8.6
4,COC(=O)[C@]12CCC(C)(C)C[C@H]1[C@H]1C(=O)C=C3[C@@]4(C)C=C(C#N)C(=O)C(C)(C)[C@@H]4CC[C@@]3(C)[C@]1(C)CC2 [Bardoxolone methyl],110 ± 4
5,Cc1c(-c2ccc(-c3ccccc3F)cc2)nc2ccc(F)cc2c1C(=O)O [Brequinar],78.9 ± 5.1
6,Nc1nc(Cl)nc2c1ncn2[C@H]1C[C@H](O)[C@@H](CO)O1 [Cladribine],67.648 ± 0.059
7,O=C1c2cc([N+](=O)[O-])ccc2-n2c1nc1ccccc1c2=O [GNF-Pf-3777],105 ± 0.55
8,C=C(C)[C@H]1Cc2c(ccc3c2O[C@@H]2COc4cc(OC)c(OC)cc4[C@@H]2C3=O)O1 [Rotenone],83 ± 2.4
9,Oc1ccc(Nc2nc(-c3ccc(Cl)cc3)cs2)cc1 [SKI II],104 ± 1.8
10,Cc1cn([C@H]2C[C@H](O)[C@@H](COP(=O)(O)OP(=O)(O)O)O2)c(=O)[nH]c1=O [Thymidine diphosphate],101 ± 0.85
11,CN(C)c1cc(NC(=O)CNC(C)(C)C)c(O)c2c1C[C@H]1C[C@H]3[C@H](N(C)C)C(=O)C(C(N)=O)C(=O)[C@@]3(O)C(=O)C1C2=O (stereo partly drawn) [Tigecycline],106 ± 2.4
12,COc1ccc2c(C(=S)N(C)CC(=O)O)cccc2c1C(F)(F)F [Tolrestat],104 ± 3.8
13,CCC(=O)N1CCN(c2ccc(-n3c(=O)ccc4cnc5ccc(-c6cnc7ccccc7c6)cc5c43)cc2C(F)(F)F)CC1 [Torin1],91.3 ± 18
14,NC(=O)c1cccc(-c2cccc(OC(=O)NC3CCCCC3)c2)c1 [URB-597],101 ± 8.3
15,O=C1O[C@H]([C@@H](O)CO)C(O)=C1O [Vitamin C (ascorbate)],101 ± 2

# Same assay, conditions: 0.1 µM; 72 h; co-treatment: DMSO vehicle
row,Structure (SMILES),cell viability [%]
1,O=C(C1CC1)N1CC[C@@H](C=C2NNC(=O)N2c2ccc(-c3ccc4occc4c3)cc2)C1,95.1 ± 3.5
2,C[C@H](NC(=O)c1sccc1OCc1ccc(Cl)cc1)c1ccccc1,96.69 ± 0.35
3,O=C(O)C1=CC(=C(c2ccc(O)c(C(=O)O)c2)c2ccc(O)c(C(=O)O)c2)C=CC1=O [Aurintricarboxylic acid],106 ± 5.5
4,COC(=O)[C@]12CCC(C)(C)C[C@H]1[C@H]1C(=O)C=C3[C@@]4(C)C=C(C#N)C(=O)C(C)(C)[C@@H]4CC[C@@]3(C)[C@]1(C)CC2 [Bardoxolone methyl],101 ± 4.3
5,Cc1c(-c2ccc(-c3ccccc3F)cc2)nc2ccc(F)cc2c1C(=O)O [Brequinar],81.4 ± 4.1
6,Nc1nc(Cl)nc2c1ncn2[C@H]1C[C@H](O)[C@@H](CO)O1 [Cladribine],88.9 ± 5.8
7,O=C1c2cc([N+](=O)[O-])ccc2-n2c1nc1ccccc1c2=O [GNF-Pf-3777],103 ± 3.4
8,C=C(C)[C@H]1Cc2c(ccc3c2O[C@@H]2COc4cc(OC)c(OC)cc4[C@@H]2C3=O)O1 [Rotenone],86.415 ± 0.053
